Assay results reported in paper PMC8410435, “Evaluation of Neuraminidase Inhibitory Activity of Compounds and Extracts from Traditional Medicines by HPLC-FLD” (International Journal of Analytical Chemistry, 2021).

The compounds below were run against T1, neuraminidase (NA), from Sigma-Aldrich. Settings: read-out: HPLC-FLD.
T1 construct: gene nanH
Assay type: biochemical
Work on `O=c1ccc2ccc3occc3c2o1` [compound 11, Angelicin] yielded an IC50 of 2550 ± 380 µM.

Target: T1, neuraminidase (NA), from Sigma-Aldrich
Assay type: biochemical
Settings: read-out: HPLC-FLD
Remark: another data set of the same source
With `COC(=O)C1=CO[C@@H](O[C@@H]2O[C@H](CO)[C@@H](O)[C@H](O)[C@H]2O)[C@@H]2C(CO)=CC[C@H]12` [compound 1, Geniposide] the IC50 was 970 ± 90 µM.
`O=C(/C=C/c1ccc(O)c(O)c1)O[C@@H]1C[C@](O)(C(=O)O)C[C@@H](O)[C@H]1O` [compound 3, Chlorogenic acid] showed an IC50 of 2560 ± 60 µM.
With `O=C(/C=C/c1ccc(O)c(O)c1)O[C@H]1[C@H](O)C[C@](O)(C(=O)O)C[C@H]1O` [compound 4, Cryptochlorogenin acid] the IC50 was 2200 ± 10 µM.
Compound `O=C(/C=C/c1ccc(O)c(O)c1)O[C@@H]1[C@H](O)C[C@@](O)(C(=O)O)C[C@H]1OC(=O)/C=C/c1ccc(O)c(O)c1` [compound 6, Isochlorogenic acid C] has an IC50 of 1170 ± 50 µM.
Compound `O=C(O)[C@H]1O[C@@H](Oc2cc3oc(-c4ccccc4)cc(=O)c3c(O)c2O)[C@H](O)[C@@H](O)[C@@H]1O` [compound 7, Baicalin] has an IC50 of 500 ± 40 µM.
`O=c1cc(-c2ccccc2)oc2cc(O)c(O)c(O)c12` [compound 8, Baicalein] showed an IC50 of 110 ± 10 µM.
Compound `CC(C)=CCOc1c2ccoc2cc2oc(=O)ccc12` [compound 9, Isoimpemtorin] has an IC50 of 660 ± 160 µM.
`O=c1ccc2cc3ccoc3cc2o1` [compound 10, Psoralen] was tested, and the IC50 was 1000 ± 630 µM.
For `O=c1ccc2cc3ccoc3c(O)c2o1` [compound 12, Xanthotol], the IC50 was 1050 ± 70 µM.
Work on `COc1c2ccoc2cc2oc(=O)ccc12` [compound 13, Bergapten] yielded an IC50 of 2800 ± 160 µM.
`COc1ccc2ccc(=O)oc2c1CC=C(C)C` [compound 14, Osthole] was tested, and the IC50 was 2140 ± 150 µM.

Same assay, conditions: read-out: NA enzyme-based inhibitory assays
Compound `COC(=O)C1=CO[C@@H](O[C@@H]2O[C@H](CO)[C@@H](O)[C@H](O)[C@H]2O)[C@H]2[C@@H]1[C@H](O)C[C@]2(C)O` [compound 2, Shanzhiside methyl ester] has an IC50 of 10 µM.
